{"source": "patent US8142760B2", "about": "“Vaccination for Lawsonia intracellularis” (priority 2008, dated 2012)", "tested_on": "Lawsonia intracellularis", "assay": "Fecal PCR for L. intracellularis in pigs after controlled exposure", "format": "in vivo", "details": "day 28, after 14 days of MECADOX 50 g/ton in feed started 14 days post inoculation", "from_the_text": "Four groups of pigs totaling 1409 pigs, between 8 and 10 weeks of age and sourced from a single nursery site, were moved to a finishing barn containing four separate rooms. The barn was filled over four consecutive weeks, filling one room per week. Each group of approximately 350 pigs was weighed as a group before placement into a barn room. The four rooms were alternately assigned to two treatment groups, inoculated (T1) and non-inoculated (T2). Sixteen animals per room were randomly selected and individually identified with ear tags.\nOn day 0, T1 pigs received inoculum of mucosal homogenate from PE-diseased intestine. Samples of inoculum were submitted to a diagnostic lab for quantification of L. intracellularis organisms before administration. The inoculum was delivered to each pen through the watering system and calibrated to deliver an average dose of 10^5±10 L. intracellularis organisms per pig over a 4-6 hour period. T2 pigs received no inoculum.\nAll pigs received MECADOX (carbadox) (50 g/ton) for at least 14 days in their nursery diets and up until day −3. Non-medicated feed was fed days −3 to 14 (exposure period) to both treatment groups. MECADOX (carbadox) 50 grams/ton medicated feed was fed to all pigs on days 14 to 28. From day 28 to end of study, all pigs received non-medicated feed. […]", "data": [{"smiles": "COC(=O)N/N=C/c1c[n+]([O-])c2ccccc2[n+]1[O-]", "note": "[MECADOX (carbadox), carbadox]", "values": [{"measurement": "sampled, infected pigs negative by fecal PCR for L. intracellularis", "value": 100, "unit": "%"}]}]}
